Values of other authors as cited in patent US8155888B2, “Method and apparatus for assessing polypeptide aggregation” (Cambridge University Technical Services Ltd., priority 2003, dated 2012).
Where two headings read alike, the source gives them in different places. Where no end group is shown, it is not given here.

Tests used:
[1] = not given; remark: listed apart in the source
[2] = not given; remark: listed apart in the source
[3] = mutant versus wild type; growth phase only; from literature data
[4] = Table 1, neutral pH, partition coefficients from water to octanol
[5] = Table 5, neutral pH, partition coefficients from water to octanol
[6] = Table 1, normalised from 0 (high) to 1 (low)
[7] = Table 5, normalized from 0 (high) to 1 (low)

Row | Compound | hydrophobicity [4] | hydrophobicity [5] | β-sheet propensity [1, 6] | β-sheet propensity [1, 7] | charge ([2]; Table 1, neutral pH) | charge ([2]; Table 5, neutral pH) | observed ln(νmut/νwt) [3] | further results
1 | NCC(=O)O [Gly (G), glycine] | 0 kcal/mol | 0.00 kcal/mol | 0.60 | 0.60 | 0 | 0 | – | –
2 | I26A: single-point mutation I26A of amylin (KCNTATCATQRLANFLVHSSNNFGAALSSTNVGSNTY; ends and bridges not checked; cysteine pairing not given here; UniProt P10997 34-70, looked up, variant I26A) | – | – | – | – | – | – | −2.39 | –
3 | O=C(O)[C@@H]1CCCN1 [Pro (P), proline] | -0.237 kcal/mol | -0.99 kcal/mol | – | – | 0 | 0 | – | –
4 | G24A: single-point mutation G24A of amylin (KCNTATCATQRLANFLVHSSNNFAAILSSTNVGSNTY; ends and bridges not checked; cysteine pairing not given here; UniProt P10997 34-70, looked up, variant G24A) | – | – | – | – | – | – | −0.03 | –
5 | N[C@@H](CS)C(=O)O [Cys (C)] | -0.0598 kcal/mol | -0.25 kcal/mol | 0.25 | 0.25 | 0 | 0 | – | –
6 | E22K: E22K mutation of Aβ (amyloid-β peptide) | – | – | – | – | – | – | 0.92 | –
7 | CC[C@H](C)[C@H](N)C(=O)O [Ile (I)] | -0.435 kcal/mol | -1.82 kcal/mol | 0.10 | 0.10 | 0 | 0 | – | –
8 | N[C@@H](Cc1ccccc1)C(=O)O [Phe (F), phenylalanine] | -0.543 kcal/mol | -2.27 kcal/mol | 0.13 | 0.13 | 0 | 0 | – | –
9 | S20G: S20G mutation of amylin (KCNTATCATQRLANFLVHSGNNFGAILSSTNVGSNTY; ends and bridges not checked; cysteine pairing not given here; UniProt P10997 34-70, looked up, variant S20G) | – | – | – | – | – | – | 1.01 | –
10 | L27A: single-point mutation L27A of amylin (KCNTATCATQRLANFLVHSSNNFGAIASSTNVGSNTY; ends and bridges not checked; cysteine pairing not given here; UniProt P10997 34-70, looked up, variant L27A) | – | – | – | – | – | – | −0.93 | –
11 | N[C@@H](CCC(=O)O)C(=O)O [Glu (E), glutamic acid] | – | – | 0.35 | 0.35 | −1 | −1 | – | –
12 | N[C@@H](CO)C(=O)O [Ser (S), serine] | 0.296 kcal/mol | 1.24 kcal/mol | 0.30 | 0.30 | 0 | 0 | – | –
13 | F19T: F19T mutation of Aβ (amyloid-β peptide) | – | – | – | – | – | – | −2.48 | –
14 | A21G: A21G mutation of Aβ (amyloid-β peptide) | – | – | – | – | – | – | −0.07 | –
15 | F23A: single-point mutation F23A of amylin (KCNTATCATQRLANFLVHSSNNAGAILSSTNVGSNTY; ends and bridges not checked; cysteine pairing not given here; UniProt P10997 34-70, looked up, variant F23A) | – | – | – | – | – | – | −2.65 | –
16 | N[C@@H](Cc1c[nH]cn1)C(=O)O [His (H), histidine] | 0.153 kcal/mol | 0.64 kcal/mol | 0.37 | 0.37 | 0 | 0 | – | hydrophobicity (Table 1, value in brackets, pH lower than 6.0, histidine positively charged): 0.686 kcal/mol; hydrophobicity (Table 5, value in brackets, pH lower than 6.0, histidine positively charged): 2.87 kcal/mol; charge ([2]; Table 1, value in brackets, pH lower than 6.0): +1; charge ([2]; Table 5, value in brackets, pH lower than 6.0): +1
17 | C[C@@H](O)[C@H](N)C(=O)O [Thr (T)] | 0.239 kcal/mol | 1.00 kcal/mol | 0.06 | 0.06 | 0 | 0 | – | –
18 | CC(C)[C@H](N)C(=O)O [Val (V)] | – | -1.30 kcal/mol | 0.13 | 0.13 | 0 | 0 | – | –
19 | N22A: single-point mutation N22A of amylin (KCNTATCATQRLANFLVHSSNAFGAILSSTNVGSNTY; ends and bridges not checked; cysteine pairing not given here; UniProt P10997 34-70, looked up, variant N22A) | – | – | – | – | – | – | 0.69 | –
20 | NC(=O)C[C@H](N)C(=O)O [Asn (N)] | 0.457 kcal/mol | 1.91 kcal/mol | 0.40 | 0.40 | 0 | 0 | – | –
21 | D23N: D23N mutation of Aβ (amyloid-β peptide) | – | – | – | – | – | – | 3.97 | –
22 | CSCC[C@H](N)C(=O)O [Met (M)] | -0.229 kcal/mol | -0.96 kcal/mol | 0.26 | 0.26 | 0 | 0 | – | –
23 | C[C@H](N)C(=O)O [Ala (A)] | -0.0932 kcal/mol | -0.39 kcal/mol | 0.47 | 0.47 | 0 | 0 | – | –
24 | E22Q: E22Q mutation of Aβ (amyloid-β peptide) | – | – | – | – | – | – | 2.92 | –
25 | NC(=O)CC[C@H](N)C(=O)O [Gln (Q)] | 0.311 kcal/mol | 1.30 kcal/mol | 0.34 | 0.34 | 0 | 0 | – | –
26 | N[C@@H](Cc1ccc(O)cc1)C(=O)O [Tyr (Y)] | -0.351 kcal/mol | -1.47 kcal/mol | 0.11 | 0.11 | 0 | 0 | – | –
27 | N[C@@H](CC(=O)O)C(=O)O [Asp (D), aspartic acid] | 0.911 kcal/mol | 3.81 kcal/mol | 0.72 | 0.72 | −1 | −1 | – | –
28 | E22G: E22G mutation of Aβ (amyloid-β peptide) | – | – | – | – | – | – | 2.03 | –
